According to patent US6469008B2, “(R)-hydroxynefazodone antipsychotic therapy” (Sepracor Inc., priority 1999, dated 2002):

Assays:
[1] = molecular target: T1, D3 (Homo sapiens, UniProt P35462); assay: Dopamine D3 receptor binding
T1 construct: host or cells: membrane preparations
Experimental: (§1) Dopamine and serotonin receptor binding assays were performed in a standard manner with the incubation of membrane preparations in an assay buffer in the presence of a known radioactively labeled specific ligand for the receptor subtypes. Nonspecific binding was determined by assessing binding in the presence of excess ligand. Specific binding was measured as the total labeled ligand bound after the nonspecific binding was subtracted. The effect of the tested agents was measured by determining the competition for the receptor binding across a concentration range. Subsequently, an IC50 was determined for the agents tested. More specific details are provided below for several of the assays performed.

[2] = molecular target: T2, Human 5-HT2A receptor (Homo sapiens, UniProt P28223); assay: 5-HT2A receptor binding; conditions: [3H]ketanserin, transfected CHO cell membranes; read-out: Serotonin Receptor Binding 5-HT2A (IC50)
T2 construct: expressed in transfected cells; host or cells: CHO cells
Experimental: as §1
Aliquots of transfected CHO cell membrane preparations corresponding to 20-50 μg protein are incubated for 15 min at 37° C. in 250 μl of 50 mM Tris-HCl buffer (pH 7.4) containing 2 nM [^3H]ketanserin and increasing concentrations of the competing drugs. Nonspecific binding is determined in the presence of 1 μM ketanserin. After incubation, the samples are filtered rapidly under vacuum through glass fiber filters (GF/B, Packard) and rinsed several times with ice-cold 50 mM Tris-HCl using a cell harvester (Packard). Bound radioactivity is measured with a scintillation counter (Topcount, Packard) using a liquid scintillation cocktail (Microscint 0, Packard).
The reference compound for this assay is ketanserin.

[3] = molecular target: T3, 5-HT2B (Homo sapiens, UniProt P41595); assay: 5-HT2B receptor binding; conditions: read-out: Serotonin Receptor Binding 5-HT2B (IC50)
T3 construct: host or cells: membrane preparations
Experimental: as §1

[4] = molecular target: T4, Human 5-HT2C receptor (Homo sapiens, UniProt P28335); assay: 5-HT2C receptor binding; conditions: [3H]mesulergine, transfected CHO cell membranes; read-out: Serotonin Receptor Binding 5HT2C (IC50)
T4 construct: expressed in transfected cells; host or cells: CHO cells
T4 sequence (P28335 33-458): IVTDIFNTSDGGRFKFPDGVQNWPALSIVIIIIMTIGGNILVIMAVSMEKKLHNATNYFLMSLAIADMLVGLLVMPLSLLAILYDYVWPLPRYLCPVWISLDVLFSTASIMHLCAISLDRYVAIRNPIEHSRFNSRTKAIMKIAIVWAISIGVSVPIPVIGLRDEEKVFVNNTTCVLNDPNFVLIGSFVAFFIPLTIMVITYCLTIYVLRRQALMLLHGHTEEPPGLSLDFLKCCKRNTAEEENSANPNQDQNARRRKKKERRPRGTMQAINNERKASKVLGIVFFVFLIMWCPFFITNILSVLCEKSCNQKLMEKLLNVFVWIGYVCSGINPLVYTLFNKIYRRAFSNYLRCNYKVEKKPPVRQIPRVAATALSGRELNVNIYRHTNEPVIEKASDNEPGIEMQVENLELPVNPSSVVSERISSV
Experimental: as §1
Aliquots of transfected CHO cell membrane preparations corresponding to 5-10 μg protein are incubated for 30 min at 37° C. in 250 μl of 50 mM Tris-HCl buffer (pH 7.7) containing 10 μM pargyline, 0.7 nM [^3H]mesulergine and increasing concentrations of the competing drugs. Nonspecific binding is determined in the presence of 1 μM mesulergine. After incubation, the samples are filtered rapidly under vacuum through glass fiber filters (GF/B, Packard) and rinsed several times with ice-cold 50 mM Tris-HCl using a cell harvester (Packard). Bound radioactivity is measured with a scintillation counter (Topcount, Packard) using a liquid scintillation cocktail (Microscint 0, Packard). The reference compound for this assay is mesulergine.

[5] = molecular target: T5, 5-HT5A (Homo sapiens, UniProt P47898); assay: 5-HT5A receptor binding; conditions: read-out: Serotonin Receptor Binding 5-HT5A (IC50)
T5 construct: host or cells: membrane preparations
Experimental: as §1

[6] = molecular target: T6, 5-HT7 (Homo sapiens, UniProt P34969); assay: 5-HT7 receptor binding; conditions: read-out: Serotonin Receptor Binding 5-HT7 (IC50)
T6 construct: host or cells: membrane preparations
Experimental: as §1

[7] = AUC and Cmax increasing more than proportionally with dose and upon multiple dosing; cited from earlier work
[8] = molecular target: T7, 5-HT1A receptors (Homo sapiens, UniProt P08908); assay: 5-HT1A receptor binding; design: expressed in transfected cells; host or cells: CHO cells; conditions: [3H]8-OH-DPAT, transfected CHO cell membranes; read-out: Serotonin Receptor Binding 5-HT1A (IC50)
T7 sequence (P08908 1-422): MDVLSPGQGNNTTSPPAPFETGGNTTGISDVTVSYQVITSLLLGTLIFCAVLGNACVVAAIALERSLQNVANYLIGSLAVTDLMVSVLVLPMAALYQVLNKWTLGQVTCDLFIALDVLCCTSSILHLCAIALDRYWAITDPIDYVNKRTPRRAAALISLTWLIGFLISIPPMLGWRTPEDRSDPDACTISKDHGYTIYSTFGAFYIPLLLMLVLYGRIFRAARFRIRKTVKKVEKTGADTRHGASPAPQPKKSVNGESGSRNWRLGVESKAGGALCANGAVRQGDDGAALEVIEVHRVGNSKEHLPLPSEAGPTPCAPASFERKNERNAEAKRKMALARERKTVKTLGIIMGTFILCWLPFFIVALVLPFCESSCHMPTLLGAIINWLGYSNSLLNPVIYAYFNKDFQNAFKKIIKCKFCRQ
Experimental: as §1
Aliquots of transfected CHO cell membrane preparations corresponding to 7-15 μg protein are incubated for 60 min at 22° C. in 250 μl of 50 mM Tris-HCl buffer (pH 7.4) containing 10 mM MgSO4, 0.5 mM EDTA, 0.3 nM [^3H]8-OH-DPAT and increasing concentrations of the competing drugs. Nonspecific binding is determined in the presence of 10 μM 8-OH-DPAT. After incubation, the samples are filtered rapidly under vacuum through glass fiber filters (GF/B, Packard) and rinsed several times with ice-cold 50 mM Tris-HCl using a cell harvester (Packard). Bound radioactivity is measured with a scintillation counter (Topcount, Packard) using a liquid scintillation cocktail (Microscint 0, Packard). The reference compound for this assay is 8-OH-DPAT.

[9] = test system: 5-HT2 receptors versus dopamine receptors; assay: Selectivity from dopamine and serotonin receptor binding data; conditions: compared with nefazodone or S-hydroxynefazodone
Experimental: as §1

T6 sequence (P34969 whole entry, species assumed): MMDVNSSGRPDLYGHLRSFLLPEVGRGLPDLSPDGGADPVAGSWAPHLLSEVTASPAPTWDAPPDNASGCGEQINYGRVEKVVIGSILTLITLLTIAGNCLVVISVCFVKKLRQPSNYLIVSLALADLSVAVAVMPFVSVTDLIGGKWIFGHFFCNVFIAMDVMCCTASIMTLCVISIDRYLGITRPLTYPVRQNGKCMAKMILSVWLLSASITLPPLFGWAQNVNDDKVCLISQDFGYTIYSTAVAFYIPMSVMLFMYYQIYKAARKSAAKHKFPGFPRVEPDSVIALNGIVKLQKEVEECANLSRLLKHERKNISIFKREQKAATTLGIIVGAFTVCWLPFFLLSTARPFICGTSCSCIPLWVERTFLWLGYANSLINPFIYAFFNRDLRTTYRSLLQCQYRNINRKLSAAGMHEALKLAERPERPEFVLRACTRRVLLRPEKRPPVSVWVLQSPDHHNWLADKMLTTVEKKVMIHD
T5 sequence (P47898 whole entry, species assumed): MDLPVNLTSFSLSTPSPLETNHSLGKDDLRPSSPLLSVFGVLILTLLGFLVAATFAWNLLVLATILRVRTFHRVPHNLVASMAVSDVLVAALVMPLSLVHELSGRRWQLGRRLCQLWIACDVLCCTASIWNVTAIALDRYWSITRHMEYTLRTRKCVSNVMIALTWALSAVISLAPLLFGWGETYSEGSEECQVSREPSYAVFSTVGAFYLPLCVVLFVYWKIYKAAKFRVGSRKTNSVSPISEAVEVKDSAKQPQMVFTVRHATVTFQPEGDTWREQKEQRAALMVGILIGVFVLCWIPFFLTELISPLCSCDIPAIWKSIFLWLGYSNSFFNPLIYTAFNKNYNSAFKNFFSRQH
T3 sequence (P41595 whole entry, species assumed): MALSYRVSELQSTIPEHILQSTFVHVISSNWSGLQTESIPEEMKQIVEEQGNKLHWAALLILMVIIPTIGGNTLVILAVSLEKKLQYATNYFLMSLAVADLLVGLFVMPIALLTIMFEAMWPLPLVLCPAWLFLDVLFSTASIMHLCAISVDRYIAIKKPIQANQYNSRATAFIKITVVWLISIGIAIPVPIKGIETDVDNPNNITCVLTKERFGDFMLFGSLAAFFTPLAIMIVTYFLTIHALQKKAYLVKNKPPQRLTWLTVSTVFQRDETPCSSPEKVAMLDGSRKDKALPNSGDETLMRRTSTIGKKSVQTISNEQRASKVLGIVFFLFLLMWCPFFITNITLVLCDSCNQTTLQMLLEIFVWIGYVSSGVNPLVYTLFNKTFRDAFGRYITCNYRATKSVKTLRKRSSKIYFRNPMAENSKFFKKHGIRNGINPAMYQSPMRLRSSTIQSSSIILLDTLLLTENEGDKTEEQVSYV
T1 sequence (P35462 whole entry): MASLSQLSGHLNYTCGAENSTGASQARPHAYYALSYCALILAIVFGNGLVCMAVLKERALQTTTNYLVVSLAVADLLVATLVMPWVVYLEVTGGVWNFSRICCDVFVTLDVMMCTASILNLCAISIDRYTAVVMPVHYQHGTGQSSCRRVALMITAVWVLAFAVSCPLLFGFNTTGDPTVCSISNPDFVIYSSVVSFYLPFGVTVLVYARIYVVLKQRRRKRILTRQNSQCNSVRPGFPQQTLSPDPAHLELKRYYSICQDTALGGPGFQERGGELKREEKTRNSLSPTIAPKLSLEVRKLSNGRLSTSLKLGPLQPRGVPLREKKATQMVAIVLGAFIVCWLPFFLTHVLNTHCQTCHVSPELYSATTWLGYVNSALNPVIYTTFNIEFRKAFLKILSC
T2 sequence (P28223 whole entry): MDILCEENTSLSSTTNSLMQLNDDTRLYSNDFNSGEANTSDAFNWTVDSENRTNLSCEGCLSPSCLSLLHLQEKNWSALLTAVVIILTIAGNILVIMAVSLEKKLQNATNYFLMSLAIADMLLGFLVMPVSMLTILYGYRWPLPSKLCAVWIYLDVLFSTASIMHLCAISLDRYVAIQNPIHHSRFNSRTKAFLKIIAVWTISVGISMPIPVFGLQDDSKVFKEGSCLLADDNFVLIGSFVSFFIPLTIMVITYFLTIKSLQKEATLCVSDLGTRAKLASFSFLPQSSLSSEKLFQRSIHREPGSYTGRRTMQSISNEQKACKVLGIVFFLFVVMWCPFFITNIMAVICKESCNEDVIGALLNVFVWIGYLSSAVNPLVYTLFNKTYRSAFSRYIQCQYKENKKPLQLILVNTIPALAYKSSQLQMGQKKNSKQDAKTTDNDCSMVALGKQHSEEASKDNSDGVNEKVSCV

SMILES	IC50 [1]	IC50 [2]	IC50 [3]	IC50 [4]	IC50 [5]	IC50 [6]	kinetics for dose and time (AUC and Cmax) [7]	IC50 [8]	selectivity for 5-HT family of receptors, in particular 5-HT2, versus dopamine receptors (D2 and D4) [9]
CC(O)c1nn(CCCN2CCN(c3cccc(Cl)c3)CC2)c(=O)n1CCOc1ccccc1 (racemic) [(RS)-OH, 2-[3-[4-(3-chlorophenyl)1-piperazinyl]propyl]-5-(1-hydroxyethyl)-2,4-dihydro-4-(phenoxyethyl)-3H-1,2,4-triazol-3-one, reference compound]	2560 nM	20 nM	34 nM	46 nM	2230 nM	61 nM	nonlinear kinetics	409 nM	
C[C@@H](O)c1nn(CCCN2CCN(c3cccc(Cl)c3)CC2)c(=O)n1CCOc1ccccc1 [(R)-OH, (R)-hydroxynefazodone]	3490 nM	22 nM	28 nM	33 nM	2040 nM	71 nM		496 nM	interacts more selectively
C[C@H](O)c1nn(CCCN2CCN(c3cccc(Cl)c3)CC2)c(=O)n1CCOc1ccccc1 [(S)-OH, (S)-2-{3-[4-(3-Chlorophenyl)-1-piperazinyl]propyl}-4-(2-phenoxyethyl)-5-[1-(hydroxy)-ethyl]-2,4-dihydro-[1,2,4]triazol-3-one]	1910 nM	18 nM	41 nM	34 nM	1970 nM	60 nM		249 nM	
